Measured values published in patent US20080274095A1, “Biocides” (priority 2004, published 2008).
Ends that are not written are not given here.

Legend:
Caco-2 Host Cells = test: Host cell toxicity assay by LDH release; assay type: cell-based, human
Protocol: Host cell toxicity assay was performed by measuring the release of lactate dehydrogenase (LDH) in the medium using a CYTOTOX 96 Non-Radioactive Cytotoxicity Assay kit (Promega, Madison, Wis.). Toxicity was therefore classified as non toxic 0-5% LDH release and mild toxicity 5-10% LDH release (ref).

[1] = read-out: affinity constant (Km) for substrate; cited from earlier work
[2] = system: panel of organisms in stationary growth phase; settings: cited from earlier work
C. parvum sporozoites = test: Effect of PLA2 on C. parvum sporozoite infectivity for Caco-2 monolayers; assay type: cell-based, Cryptosporidium parvum
Protocol: This experiment describes the effects of PLA2 on sporozoite infectivity. Briefly, sporozoites were incubated in an isotonic saline solution (37° C., 30 min) with a range of concentrations of PLA2 isolated from honey bee venom (Sigma-Aldrich Corp., St. Louis, Mo., 1.5 U/μg protein). Control sporozoites were identically incubated in buffer containing concentration-matched BSA but no PLA2. Sporozoites were then washed in medium and inoculated onto replicate Caco-2 human intestinal epithelial cell monolayers. 24 h later, infection was quantified in test and control monolayers by immunofluorescence assay as described herein and the mean percent reduction of infection calculated. […] Percent viability of Caco-2 cells following exposure to PLA2-treated sporozoites (86%) was similar to that of uninoculated control cells (91%) at 24 hrs, as determined by trypan blue dye exclusion. […]
For this assay, isolated sporozoites are incubated (15 min, 37° C.) with an individual biocide in isotonic buffer over a range of concentrations that would theoretically be achievable at the sporozoite surface by targeted delivery as a MAb-biocide fusion protein. […] In parallel, viability of control sporozoites after incubation with the selected biocide concentrations is determined by fluorescein diacetate assay. […] Samples are then processed and evaluated as described herein. […]

Caco-2 cells = test: Caco-2 cell viability by trypan blue dye exclusion; assay type: cell-based, human; settings: following exposure to PLA2-treated sporozoites, 24 hrs
Protocol: This experiment describes the effects of PLA2 on sporozoite infectivity. Briefly, sporozoites were incubated in an isotonic saline solution (37° C., 30 min) with a range of concentrations of PLA2 isolated from honey bee venom (Sigma-Aldrich Corp., St. Louis, Mo., 1.5 U/μg protein). Control sporozoites were identically incubated in buffer containing concentration-matched BSA but no PLA2. Sporozoites were then washed in medium and inoculated onto replicate Caco-2 human intestinal epithelial cell monolayers. 24 h later, infection was quantified in test and control monolayers by immunofluorescence assay as described herein and the mean percent reduction of infection calculated. […] Percent viability of Caco-2 cells following exposure to PLA2-treated sporozoites (86%) was similar to that of uninoculated control cells (91%) at 24 hrs, as determined by trypan blue dye exclusion. […] Through fusion of PLA2 to a monoclonal antibody with a high affinity for sporozoites, such as 1E10 or 4H9, lethal concentrations of biocide are deliverable to the sporozoite surface with relatively low amounts of biocide being used.

Molecule	% LDH release (Caco-2 Host Cells; 100 μg/ml) [%]	% LDH release (Caco-2 Host Cells; 10 μg/ml) [%]	other results
lysozyme [LYZ]	−1.9 ± 1.3	–	Km [1]: ~1000 µM
indolicidin	8.3 ± 3.5	0.9 ± 0.7	–
b-defensin 2 [βD2]	5.3 ± 1.5	−0.9 ± 0.5	–
HNP-1: human neutrophil defensin, SEQ ID NO 38	–	–	antimicrobial properties relative to other defensins [2]: most potent antimicrobial properties
CC[C@H](C)[C@H](NC(=O)[C@H](CCCCN)NC(=O)[C@H](CCC(=O)O)NC(=O)[C@H](CCCCN)NC(=O)[C@H](CO)NC(=O)[C@H](CCCCN)NC(=O)[C@H](CCCNC(=N)N)NC(=O)[C@H](Cc1ccccc1)NC(=O)[C@H](Cc1ccccc1)NC(=O)[C@H](CC(=O)O)NC(=O)CNC(=O)[C@H](CC(C)C)NC(=O)[C@@H](N)CC(C)C)C(=O)NCC(=O)N[C@@H](CCCCN)C(=O)N[C@@H](CCC(=O)O)C(=O)N[C@@H](Cc1ccccc1)C(=O)N[C@@H](CCCCN)C(=O)N[C@@H](CCCNC(=N)N)C(=O)N[C@H](C(=O)N[C@H](C(=O)N[C@@H](CCC(N)=O)C(=O)N[C@@H](CCCNC(=N)N)C(=O)N[C@H](C(=O)N[C@@H](CCCCN)C(=O)N[C@@H](CC(=O)O)C(=O)N[C@@H](Cc1ccccc1)C(=O)N[C@@H](CC(C)C)C(=O)N[C@@H](CCCNC(=N)N)C(=O)N[C@@H](CC(N)=O)C(=O)N[C@@H](CC(C)C)C(=O)N[C@H](C(=O)N1CCC[C@H]1C(=O)N[C@@H](CCCNC(=N)N)C(=O)N[C@H](C(=O)N[C@@H](CCC(=O)O)C(=O)N[C@@H](CO)C(=O)O)[C@@H](C)O)C(C)C)[C@@H](C)CC)C(C)C)[C@@H](C)CC [CAT, cathelicidin]	5.6 ± 0.9	1.6 ± 0.3	–
phospho-inositol specific phospholipase C [PI-PLC]	−1.4 ± 0.9	–	–
NP-1: rabbit neutrophil defensin, SEQ ID NO 42 (VVCACRRALCLPRERRAGFCRIRGRIHPLCCRR)	–	–	antimicrobial properties relative to other defensins [2]: most potent antimicrobial properties
b-defensin 1 (DHYNCVSSGGQCLYSACPIFTKIQGTCYRGKAKCCK; ends and bridges not checked; cysteine pairing not given here; UniProt P60022 33-68, looked up) [βD1, Peptides international]	2.3 ± 2.1	0.8 ± 1.0	–
phospholipase A2	–	–	Km [1]: ~100 µM
bee-venom phospholipase A2 [PLA2]	0.7 ± 0.7	–	concentration effective in neutralization (C. parvum sporozoites; preliminary data): < 0.02 units/ml; concentration achieving highly significant reduction of sporozoite infectivity (C. parvum sporozoites; sporozoites incubated 37° C., 30 min with bee venom PLA2, Caco-2 monolayers, 24 h, P<0.0005): ≤ 0.014 U/ml; Percent viability of Caco-2 cells (Caco-2 cells): 86%
lactoferricin B [LFB]	2.6 ± 2.0	3.7 ± 2.3	–
